Measured values taken from ChEMBL document CHEMBL4739716, “Gpr139 receptor modulators” (2020).

Key:
[1] = molecular target: T1, Probable G-protein coupled receptor 139 (Homo sapiens, UniProt Q6DWJ6); experiment: Agonist activity at human GPR139 expressed in CHO-K1 cells assessed as increase in calcium flux by calcium 5 dye based FLIPR assay; assay type: functional, cell-based
T1 sequence (Q6DWJ6 whole entry): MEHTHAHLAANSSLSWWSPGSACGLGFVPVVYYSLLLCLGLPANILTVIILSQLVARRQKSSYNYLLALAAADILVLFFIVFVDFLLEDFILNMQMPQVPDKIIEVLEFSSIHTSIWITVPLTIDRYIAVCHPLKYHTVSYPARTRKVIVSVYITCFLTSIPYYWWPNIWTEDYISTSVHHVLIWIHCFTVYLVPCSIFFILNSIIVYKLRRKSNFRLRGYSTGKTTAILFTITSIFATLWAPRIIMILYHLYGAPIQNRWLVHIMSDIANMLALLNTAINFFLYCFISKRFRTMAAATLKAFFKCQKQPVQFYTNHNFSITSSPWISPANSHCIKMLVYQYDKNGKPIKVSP

[2] = molecular target: T2, Probable G-protein coupled receptor 139 (Homo sapiens) (UniProt Q6DWJ6); experiment: Agonist activity at human GPR139 expressed in CHO-K1 cells assessed as increase in calcium flux by calcium 5 dye based FLIPR assay relative to JNJ63533054; assay type: functional, cell-based; conditions: filed as agonist
T2 sequence (whole entry): T1 sequence (Q6DWJ6 whole entry)

[3] = molecular target: T3, Probable G-protein coupled receptor 139 (Rattus norvegicus, UniProt P0C0W8); experiment: Agonist activity at rat GPR139 expressed in CHO-K1 cells assessed as increase in calcium flux by calcium 5 dye based FLIPR assay; assay type: cell-based
T3 sequence (P0C0W8 whole entry): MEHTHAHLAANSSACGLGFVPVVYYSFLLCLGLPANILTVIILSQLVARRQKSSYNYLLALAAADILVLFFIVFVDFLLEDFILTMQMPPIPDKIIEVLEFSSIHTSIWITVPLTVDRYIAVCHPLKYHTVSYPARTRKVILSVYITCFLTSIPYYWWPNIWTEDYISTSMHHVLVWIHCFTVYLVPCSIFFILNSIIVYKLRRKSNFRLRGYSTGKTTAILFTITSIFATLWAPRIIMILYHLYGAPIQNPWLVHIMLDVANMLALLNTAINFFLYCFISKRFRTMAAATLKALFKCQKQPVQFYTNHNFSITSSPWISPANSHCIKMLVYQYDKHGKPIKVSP

[4] = molecular target: T4, Probable G-protein coupled receptor 139 (Rattus norvegicus) (UniProt P0C0W8); experiment: Agonist activity at rat GPR139 expressed in CHO-K1 cells assessed as increase in calcium flux by calcium 5 dye based FLIPR assay relative to JNJ63533054; assay type: cell-based
T4 sequence (whole entry): T3 sequence (P0C0W8 whole entry)

[5] = molecular target: T1, Probable G-protein coupled receptor 139; experiment: Agonist activity at human GPR139 expressed in CHO-K1 cells assessed as induction of beta-arrestin 2 recruitment incubated for 90 mins by PathHunter assay; assay type: cell-based
[6] = molecular target: T2, Probable G-protein coupled receptor 139 (Homo sapiens); experiment: Agonist activity at human GPR139 expressed in CHO-K1 cells assessed as induction of beta-arrestin 2 recruitment incubated for 90 mins by PathHunter assay relative to JNJ63533054; assay type: cell-based

Structure (SMILES)	EC50 ([1]; cho-k1) [nM]	Emax [2] [%]	EC50 [3] [nM]	Emax [4] [%]	EC50 [5] [nM]	Emax ([6]; filed as agonist) [%]	EC50 [1] [nM]	Emax ([4]; filed as agonist) [%]	Emax [6] [%]	EC50 ([5]; cho-k1) [nM]	EC50 ([3]; cho-k1) [nM]
C[C@H](NC(=O)Cn1nc2cccc(N3CCN(C)CC3)n2c1=O)c1ccc(OC(F)(F)F)cc1	1	> 80	≥ 100	25	≥ 100	50					
O=C(Cn1nc2ccc(F)cn2c1=O)NC1(c2cccc(Cl)c2)CC1		> 80	≥ 100		≥ 100		≥ 100	50	25		
COc1ccn2c(=O)n(CC(=O)N[C@@H](C)c3ccc(OC(F)(F)F)cc3)nc2c1		> 80	< 1			> 80	< 1	50		1	
C[C@H](NC(=O)Cn1nc2c(NC3COC3)ccnn2c1=O)c1ccc(Cl)c(F)c1		> 80				> 80	< 1	> 80		10	1
COc1ccc2nn(CC(=O)N[C@@H](C)c3ccc(C)cc3)c(=O)n2c1	1	> 80	< 1	25	< 1				25		
C[C@H](NC(=O)Cn1nc2cccnn2c1=O)c1ccc(Cl)c(Cl)c1	1	> 80				50		50		10	1
C[C@H](NC(=O)Cn1nc2cc(Cl)cnn2c1=O)c1ccc(OC(F)(F)F)cc1	1	> 80			≥ 100			50	25		1
Cc1ccc([C@H](C)NC(=O)Cn2nc3cccnn3c2=O)cc1F	1	> 80				50		50		10	1
CC(C)[C@H](NC(=O)Cn1nc2cccnn2c1=O)c1ccc(Cl)c(F)c1	1	50			≥ 100			50	< 25		1
Cc1ccc([C@H](C)NC(=O)Cn2nc3cc(Cl)ccn3c2=O)cc1		> 80				50	< 1	50		1	1
C[C@H](NC(=O)Cn1nc2cc(N3CCCCC3)ccn2c1=O)c1ccc(OC(F)(F)F)cc1		50	< 1		≥ 100	> 80	< 1	> 80			
COc1cnn2c(=O)n(CC(=O)N[C@@H](C)c3ccc(Cl)c(F)c3)nc2c1		> 80	< 1			> 80	< 1	> 80		1	
COC1CCN(c2ccn3c(=O)n(CC(=O)N[C@@H](C)c4ccc(OC(F)(F)F)cc4)nc3c2)CC1	1	50			≥ 100	> 80		50			1
C[C@H](NC(=O)Cn1nc2ccc(F)cn2c1=O)c1ccc(Cl)c(F)c1		> 80	< 1			> 80	< 1	> 80		1	
C[C@H](NC(=O)Cn1nc2cccnn2c1=O)c1ccc(C2CC2)c(F)c1	1	> 80			≥ 100	50		50			1
Cc1ccc([C@H](C)NC(=O)Cn2nc3cc(C)ccn3c2=O)cc1		> 80	< 1			50	< 1	50		1	
Cc1ccc2nn(CC(=O)N[C@@H](C)c3ccc(Cl)c(F)c3)c(=O)n2n1		> 80	< 1			50	< 1	> 80		10	
Cc1cc([C@H](C)NC(=O)Cn2nc3ccccn3c2=O)ccc1Cl		> 80				> 80	< 1	> 80		1	1
Cc1ccn2c(=O)n(CC(=O)N[C@@H](C)c3ccc(Cl)c(F)c3)nc2n1	1	> 80	≥ 100					50	25	1	
COc1cccn2c(=O)n(CC(=O)N[C@@H](C)c3ccc(C)cc3)nc12		> 80			< 1	50	< 1	50			1
C[C@H](NC(=O)Cn1nc2ccc(F)cn2c1=O)c1ccc(Cl)cc1		> 80	< 1			50	< 1	50		1	
C[C@H](NC(=O)Cn1nc2c(C3CC3)ccnn2c1=O)c1ccc(Cl)c(F)c1		> 80	< 1			> 80	< 1	> 80		1	
Cc1ccc([C@H](C)NC(=O)Cn2nc3cccc(F)n3c2=O)cc1	1	> 80		25		50				10	1
C[C@H](NC(=O)Cn1nc2c(NCC(F)F)ccnn2c1=O)c1ccc(OC(F)(F)F)cc1		> 80		25			< 1		25	1	1
Cc1cnn2c(=O)n(CC(=O)N[C@@H](C)c3ccc(Cl)c(F)c3)nc2c1C		> 80	< 1		< 1	50	< 1	> 80			
COc1ccc2nn(CC(=O)N[C@@H](C)c3ccc(Cl)cc3)c(=O)n2n1		> 80	≥ 100	25	< 1		< 1		25		
C[C@H](NC(=O)Cn1nc2ccc(C#N)cn2c1=O)c1ccc(Cl)c(F)c1		> 80				> 80	< 1	50		1	1
Cc1ccc2nn(CC(=O)N[C@@H](C)c3ccc(OC(F)(F)F)cc3)c(=O)n2c1		> 80	< 1			> 80	< 1	50		1	
